# In patent US12338484B2, “FRET biosensor for detecting and reporting NAD+/NADH ratio changes” (Sartorius BioAnalytical Instruments, Inc., priority 2022, dated 2025):
# Assay: Performance of initial constructs under dual-excitation FRET signal collection mode
# Type: biochemical
# Description: Constructs #10 and #14 in Table 3 were used to generate protein libraries. […] This is evidenced by the fact that all clones chosen from the libraries to proceed with have in vitro a substantial increase in signal window, compared to the original template protein (constructs #10 or #14). These increases are also roughly similar fold-wise between the numbers obtained in bacterial lysate screening and in the process of in vitro characterization.
substance,measurement,value
Rex(A)-cpmEGFP(173/174)-Rex(B)-mKOk [Construct #12],Performance under dual-excitation FRET signal collection mode,poor performance
